Laboratory results: ChEMBL document CHEMBL1201862, “PubChem BioAssay data set” (2004)
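Dose response: 5 concentrations. Exposure: 48 h. Format: 96-well plates. Endpoint: linear interpolation; highest concentration if not reached. GI50 is the concentration that inhibits growth by half.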 The source made the active and inactive calls. No stated cut-off is given here; in the data, active = GI50 up to about 1.1 µM and inactive = higher.

Assays:
Assay in all cases: inhibition of tumour cell growth, NCI panel, 48 h
786-0 = tested on: 786-0
A498 = tested on: A498
A549 = tested on: A549
ACHN = tested on: ACHN
BT-549 = tested on: BT-549
CAKI-1 = tested on: CAKI-1
CCRF-CEM = tested on: CCRF-CEM
COLO 205 = tested on: COLO 205
DU-145 = tested on: DU-145
EKVX = tested on: EKVX
HCC 2998 = tested on: HCC 2998
HCT-116 = tested on: HCT-116
HCT-15 = tested on: HCT-15
HL-60 = tested on: HL-60
HOP-62 = tested on: HOP-62
HOP-92 = tested on: HOP-92
HT-29 = tested on: HT-29
Hs-578T = tested on: Hs-578T
IGROV-1 = tested on: IGROV-1
K562 = tested on: K562
KM12 = tested on: KM12
LOX IMVI = tested on: LOX IMVI
M14 = tested on: M14
MCF7 = tested on: MCF7
MDA-MB-231 = tested on: MDA-MB-231
MDA-MB-435 = tested on: MDA-MB-435
MDA-N = tested on: MDA-N
MOLT-4 = tested on: MOLT-4
Malme-3M = tested on: Malme-3M
NCI-H226 = tested on: NCI-H226
NCI-H23 = tested on: NCI-H23
NCI-H460 = tested on: NCI-H460
NCI-H522 = tested on: NCI-H522
NCI/ADR-RES = tested on: NCI/ADR-RES
OVCAR-3 = tested on: OVCAR-3
OVCAR-4 = tested on: OVCAR-4
OVCAR-5 = tested on: OVCAR-5
OVCAR-8 = tested on: OVCAR-8
PC-3 = tested on: PC-3
RPMI-8226 = tested on: RPMI-8226
RXF 393 = tested on: RXF 393
SF-268 = tested on: SF-268
SF-295 = tested on: SF-295
SF-539 = tested on: SF-539
SK-MEL-28 = tested on: SK-MEL-28
SK-MEL-2 = tested on: SK-MEL-2
SK-MEL-5 = tested on: SK-MEL-5
SK-OV-3 = tested on: SK-OV-3
SN12C = tested on: SN12C
SNB-19 = tested on: SNB-19
SNB-75 = tested on: SNB-75
SR = tested on: SR
SW-620 = tested on: SW-620
T47D = tested on: T47D
TK-10 = tested on: TK-10
U-251 = tested on: U-251
UACC-257 = tested on: UACC-257
UACC-62 = tested on: UACC-62
UO-31 = tested on: UO-31

Structure (SMILES): CCOC(=O)/C=C(/C(=O)OCC)n1cc(C)c(=O)n(Cc2cnnn2COCCOC(C)=O)c1=O
- GI50 (786-0): 7310 nM (inactive)
- GI50 (A498): 29200 nM (inactive)
- GI50 (A549): 50400 nM (inactive)
- GI50 (ACHN): 6050 nM (inactive)
- GI50 (BT-549): 17500 nM (inactive)
- GI50 (CAKI-1): 5260 nM (inactive)
- GI50 (CCRF-CEM): 2170 nM (inactive)
- GI50 (COLO 205): 3790 nM (inactive)
- GI50 (DU-145): 24500 nM (inactive)
- GI50 (EKVX): 14100 nM (inactive)
- GI50 (HCC 2998): 20000 nM (inactive)
- GI50 (HCT-116): 13300 nM (inactive)
- GI50 (HCT-15): 7450 nM
- GI50 (HL-60): 3480 nM (inactive)
- GI50 (HOP-62): 49700 nM (inactive)
- GI50 (HOP-92): 2430 nM (inactive)
- GI50 (HT-29): 13900 nM (inactive)
- GI50 (Hs-578T): 19100 nM (inactive)
- GI50 (IGROV-1): 17000 nM (inactive)
- GI50 (K562): 2990 nM (inactive)
- GI50 (KM12): 21300 nM (inactive)
- GI50 (LOX IMVI): 14800 nM (inactive)
- GI50 (M14): 14700 nM (inactive)
- GI50 (MCF7): 10500 nM (inactive)
- GI50 (MDA-MB-231): 16000 nM (inactive)
- GI50 (MDA-MB-435): 14400 nM (inactive)
- GI50 (MDA-N): 23100 nM (inactive)
- GI50 (MOLT-4): 3940 nM (inactive)
- GI50 (Malme-3M): 2800 nM (inactive)
- GI50 (NCI-H226): 17800 nM (inactive)
- GI50 (NCI-H23): 15800 nM (inactive)
- GI50 (NCI-H460): 24000 nM (inactive)
- GI50 (NCI-H522): 1580 nM (inactive)
- GI50 (NCI/ADR-RES): 23600 nM (inactive)
- GI50 (OVCAR-3): 15300 nM (inactive)
- GI50 (OVCAR-4): 24700 nM (inactive)
- GI50 (OVCAR-5): 16400 nM (inactive)
- GI50 (OVCAR-8): 14700 nM (inactive)
- GI50 (PC-3): 17200 nM (inactive)
- GI50 (RPMI-8226): 8590 nM (inactive)
- GI50 (RXF 393): 2640 nM (inactive)
- GI50 (SF-268): 17400 nM (inactive)
- GI50 (SF-295): > 100000 nM (inactive)
- GI50 (SF-539): 5220 nM (inactive)
- GI50 (SK-MEL-28): 16400 nM (inactive)
- GI50 (SK-MEL-2): 28400 nM (inactive)
- GI50 (SK-MEL-5): 20700 nM (inactive)
- GI50 (SK-OV-3): > 100000 nM (inactive)
- GI50 (SN12C): 22100 nM (inactive)
- GI50 (SNB-19): > 58500 nM (inactive)
- GI50 (SNB-75): 24900 nM (inactive)
- GI50 (SR): 4910 nM (inactive)
- GI50 (SW-620): 3810 nM (inactive)
- GI50 (T47D): 6930 nM (inactive)
- GI50 (TK-10): 5240 nM (inactive)
- GI50 (U-251): 20400 nM (inactive)
- GI50 (UACC-257): 13500 nM (inactive)
- GI50 (UACC-62): 15200 nM (inactive)
- GI50 (UO-31): 16700 nM (inactive)

Structure (SMILES): CC[C@](O)(CC(=O)O[C@H]1C(=O)O[C@@H]2C[C@H]3C(C)=CC(=O)[C@@H](O)[C@]3(C)[C@H]3[C@@]4(O)OC[C@]32[C@@H]1[C@@H](C)[C@H]4O)C(C)C
- GI50 (786-0): < 10 nM (active)
- GI50 (A498): < 10 nM (active)
- GI50 (A549): < 10 nM (active)
- GI50 (ACHN): < 10 nM (active)
- GI50 (BT-549): < 10 nM (active)
- GI50 (CAKI-1): < 10 nM (active)
- GI50 (CCRF-CEM): < 10 nM (active)
- GI50 (COLO 205): < 10 nM (active)
- GI50 (DU-145): < 10 nM (active)
- GI50 (EKVX): < 10 nM (active)
- GI50 (HCC 2998): < 10 nM (active)
- GI50 (HCT-116): < 10 nM (active)
- GI50 (HCT-15): < 10 nM
- GI50 (HL-60): < 10 nM (active)
- GI50 (HOP-62): < 10 nM (active)
- GI50 (HOP-92): < 10 nM (active)
- GI50 (HT-29): < 10 nM (active)
- GI50 (Hs-578T): < 10 nM (active)
- GI50 (IGROV-1): < 10 nM (active)
- GI50 (K562): < 10 nM (active)
- GI50 (KM12): < 10 nM (active)
- GI50 (LOX IMVI): < 10 nM (active)
- GI50 (M14): < 10 nM (active)
- GI50 (MCF7): < 10 nM (active)
- GI50 (MDA-MB-231): < 10 nM (active)
- GI50 (MDA-MB-435): < 10 nM (active)
- GI50 (MDA-N): < 10 nM (active)
- GI50 (MOLT-4): < 10 nM (active)
- GI50 (Malme-3M): < 10 nM (active)
- GI50 (NCI-H226): < 10 nM (active)
- GI50 (NCI-H23): < 10 nM (active)
- GI50 (NCI-H460): < 10 nM (active)
- GI50 (NCI-H522): < 10 nM (active)
- GI50 (NCI/ADR-RES): < 18.8 nM (active)
- GI50 (OVCAR-3): < 10 nM (active)
- GI50 (OVCAR-4): < 10 nM (active)
- GI50 (OVCAR-5): < 10 nM (active)
- GI50 (OVCAR-8): < 10 nM (active)
- GI50 (PC-3): < 10 nM (active)
- GI50 (RPMI-8226): < 10 nM (active)
- GI50 (RXF 393): < 10 nM (active)
- GI50 (SF-268): < 10 nM (active)
- GI50 (SF-295): < 10 nM (active)
- GI50 (SF-539): < 10 nM (active)
- GI50 (SK-MEL-28): < 10 nM (active)
- GI50 (SK-MEL-2): < 10 nM (active)
- GI50 (SK-MEL-5): < 10 nM (active)
- GI50 (SK-OV-3): < 10 nM (active)
- GI50 (SN12C): < 10 nM (active)
- GI50 (SNB-19): < 10 nM (active)
- GI50 (SNB-75): < 10 nM (active)
- GI50 (SR): < 10 nM (active)
- GI50 (SW-620): < 10 nM (active)
- GI50 (T47D): < 10 nM (active)
- GI50 (TK-10): < 10 nM (active)
- GI50 (U-251): < 10 nM (active)
- GI50 (UACC-257): < 10 nM (active)
- GI50 (UACC-62): < 10 nM (active)
- GI50 (UO-31): < 12.2 nM (active)
